Holding throughout (assay type): cell-based
In assay [1] the test system is Shigella seanei ATCC 9250. Put plainly: microbe, parasite or virus in culture. Conditions: ATCC9250, agar-dilution method, pH 8.0, read-out: Minimum Inhibitory Concentration.
Assay [2] concerns Proteus vulgaris ATCC 6897. Briefly: Agar dilution MIC, pH 8.0: Proteus vulgaris ATCC 6897. Conditions: ATCC6897, agar-dilution method, pH 8.0, read-out: Minimum Inhibitory Concentration.
For assay [3], the system named is Pseudomanas aeruginosa BMH 1. Put plainly: Agar dilution MIC, pH 8.0: Pseudomonas aeruginosa BMH 1. Conditions: BMH1, agar-dilution method, pH 8.0, read-out: Minimum Inhibitory Concentration.
In a further assay the test system is Escherichia coli KY 8348. Put plainly: Agar dilution MIC, pH 8.0: Escherichia coli KY 8348. Conditions: for MIC: Escherichia coli, KY8348, agar-dilution method, pH 8.0, strain produces gentamicin acetyltransferase Type I, read-out: Minimum Inhibitory Concentration; for anti-bacterial activity: comparison of MIC in Table 1, E. coli KY 8348. The text has this:
(§1) The former bacterium inactivates kanamycins and gentamicins by adenylation, and the latter inactivates gentamicins by acetylation.

A further assay deals with Escherichia coli ATCC 26. Briefly: Agar dilution MIC, pH 8.0: Escherichia coli ATCC 26. Conditions: ATCC26, agar-dilution method, pH 8.0, read-out: Minimum Inhibitory Concentration.
The next assay concerns Escherichia coli KY 8327. Briefly: Agar dilution MIC, pH 8.0: Escherichia coli KY 8327. Conditions: for MIC: Escherichia coli, KY8327, agar-dilution method, pH 8.0, strain produces gentamicin adenyltransferase, read-out: Minimum Inhibitory Concentration; for anti-bacterial activity: comparison of MIC in Table 1, E. coli KY 8327.
From the text: as §1

For assay [4], the system named is Salmanella typhosa ATCC 9992. Put plainly: microbe, parasite or virus in culture. Conditions: agar-dilution method, pH 8.0; read-out: Minimum Inhibitory Concentration.
Assay [5] relates to Bacillus subtilis No. 10707. Briefly: Agar dilution MIC, pH 8.0: Bacillus subtilis No. 10707. Conditions: NO.10707, agar-dilution method, pH 8.0, read-out: Minimum Inhibitory Concentration.
Assay [6] concerns strains of Escherichia coli having an R factor. Put plainly: Anti-bacterial activity against Escherichia coli having an R factor. Conditions: E. coli having an R factor which shows resistance to known aminoglycoside antibiotics.
Assay [7] concerns Krobsiella pneumoniae ATCC 10081. Briefly: Agar dilution MIC, pH 8.0: Krobsiella pneumoniae ATCC 10081. Conditions: agar-dilution method, pH 8.0; read-out: Minimum Inhibitory Concentration.
Assay [8] concerns Staphylococcus aureus ATCC 6538P. Briefly: Agar dilution MIC, pH 8.0: Staphylococcus aureus ATCC 6538P. Conditions: ATCC6538P, agar-dilution method, pH 8.0, read-out: Minimum Inhibitory Concentration.
Assay [9] deals with Bacillus subtillus ATCC 6688. Put plainly: Agar dilution MIC, pH 7.2: Bacillus subtillus ATCC 6688. Conditions: ATCC6688, agar dilution method, pH 7.2, read-out: Minimum Inhibitory Concentration.
The test system of assay [10] is various bacteria having a resistance to at least one of gentamicin antibiotics and XK-62-2. Put plainly: Antibacterial activity against resistant bacteria (summary of Table 2). Conditions: bacteria producing gentamicin adenyltransferase and/or gentamicin acetyltransferase Type I and Type II; from Table 2.
The test system of a further assay is Sarcina lucca ATCC 9341. Briefly: Agar dilution MIC, pH 7.2: Sarcina lucca ATCC 9341. Conditions: ATCC9341, pH 7.2, read-out: Minimum Inhibitory Concentration.
Assay [11] has as its system Pseudomonas aeruginosa BMH No. 1. Briefly: Agar dilution MIC, pH 7.2: Pseudomonas aeruginosa BMH No. 1. Conditions: BMHNO.1, agar dilution method, pH 7.2, read-out: Minimum Inhibitory Concentration.

SMILES strings stand for the structures. In brackets after ≈: the same amount, converted by molar mass.

On to `CNC[C@@H]1CC[C@@H](NC(=O)[C@@H](O)CCN)[C@@H](O[C@H]2[C@H](O)[C@@H](O[C@H]3OC[C@](C)(O)[C@H](NC)[C@H]3O)[C@H](N)C[C@@H]2N)O1` [Compound I, 2'-N-[L-(-)-α-hydroxy-γ-aminobutyryl]XK-62-2], for which the MIC in assay [1] amounted to 0.39 µg/mL (≈ 0.691 µM); in [2], 0.39 µg/mL (≈ 0.691 µM); in [3], 25 µg/mL (≈ 44.3 µM); in the assay with Escherichia coli KY 8348 it was 0.05 µg/mL (≈ 0.0885 µM); with Escherichia coli ATCC 26 it was 0.39 µg/mL (≈ 0.691 µM); with Escherichia coli KY 8327, 3.1 µg/mL (≈ 5.49 µM). Besides, the MIC in assay [4] amounted to 0.2 µg/mL (≈ 0.354 µM); in assay [5] it was 0.05 µg/mL (≈ 0.0885 µM); in assay [7], 0.1 µg/mL (≈ 0.177 µM); in assay [8] it was 0.05 µg/mL (≈ 0.0885 µM). Moreover, the “anti-bacterial activity” value (in the assay with Escherichia coli KY 8348; with Escherichia coli KY 8327; in assay [6]) was “strong anti-bacterial activity” each time.
Regarding `CNC[C@@H]1CC[C@@H](N)[C@@H](O[C@H]2[C@H](O)[C@@H](O[C@H]3OC[C@](C)(O)[C@H](NC)[C@H]3O)[C@H](NC(=O)[C@@H](O)CCN)C[C@@H]2N)O1` [Compound II, 1-N-[L-(-)-α-hydroxy-γ-aminobutyryl]XK-62-2], the MIC in [2] came out at 0.065 µg/mL (≈ 0.115 µM); with Escherichia coli KY 8327, 0.016 µg/mL (≈ 0.0283 µM); in assay [9] it was 0.1 µg/mL (≈ 0.177 µM); in assay [7] it was 0.008 µg/mL (≈ 0.0142 µM); in the assay on Sarcina lucca ATCC 9341 it was 0.4 µg/mL (≈ 0.708 µM); in [8], 0.016 µg/mL (≈ 0.0283 µM). Also, the MIC in assay [11] worked out at 1.56 µg/mL (≈ 2.76 µM). For the same compound, the “anti-bacterial activity” value (in the assay with Escherichia coli KY 8348; in the assay on Escherichia coli KY 8327; in assay [6]) was “strong anti-bacterial activity” each time. In addition, in assay [10], the “antibacterial activity” value is “very strong antibacterial activity”.
Take `CNC[C@@H]1CC[C@@H](NC(=O)[C@@H](O)CCN)[C@@H](O[C@H]2[C@H](O)[C@@H](O[C@H]3OC[C@](C)(O)[C@H](NC)[C@H]3O)[C@H](NC(=O)[C@@H](O)CCN)C[C@@H]2N)O1` [III, 1-N-2'-N-bis-[L-(-)-α-hydroxy-γ-aminobutyryl]XK -62-2]: the MIC in assay [1] came out at 0.26 µg/mL (≈ 0.391 µM); in assay [2], 0.521 µg/mL (≈ 0.783 µM); in assay [3] it was 8.34 µg/mL (≈ 12.5 µM); with Escherichia coli KY 8348, 0.065 µg/mL (≈ 0.0976 µM); in the assay with Escherichia coli ATCC 26, 0.065 µg/mL (≈ 0.0976 µM); with Escherichia coli KY 8327 it was 0.065 µg/mL (≈ 0.0976 µM). Besides, the MIC amounted to 0.008 µg/mL (≈ 0.012 µM) in [5], 0.065 µg/mL (≈ 0.0976 µM) in assay [7] and 0.065 µg/mL (≈ 0.0976 µM) in assay [8]. Further, the “anti-bacterial activity” value (with Escherichia coli KY 8348; with Escherichia coli KY 8327; in [6]) was “strong anti-bacterial activity” in each case.

Source of the values: US4218562A, “Antibiotic derivatives of XK-62-2” (Abbott Laboratories, priority 1978, dated 1980).
